This is an account of results in patent US8778951B2, “Heteroaryl compounds and their uses” (Novartis AG, priority 2009, dated 2014).

Each structure is given as a SMILES string.

In general, IC50 refers to the concentration needed to halve the response being measured. Read a high IC50 as weaker potency.

Cdk9/cyclinT1, sequence (P50750 whole entry): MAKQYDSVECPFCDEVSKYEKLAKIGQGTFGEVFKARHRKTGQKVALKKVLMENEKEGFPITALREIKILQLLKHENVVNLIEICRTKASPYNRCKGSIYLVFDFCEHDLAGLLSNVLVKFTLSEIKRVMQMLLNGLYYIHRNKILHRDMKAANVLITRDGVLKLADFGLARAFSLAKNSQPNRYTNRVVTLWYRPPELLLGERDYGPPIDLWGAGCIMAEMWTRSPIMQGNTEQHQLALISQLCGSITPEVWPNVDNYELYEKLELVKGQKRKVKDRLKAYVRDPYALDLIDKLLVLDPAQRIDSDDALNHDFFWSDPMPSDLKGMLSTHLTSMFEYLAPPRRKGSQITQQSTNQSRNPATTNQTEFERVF
Cdk9/cyclinT1, sequence (O60563 whole entry partner): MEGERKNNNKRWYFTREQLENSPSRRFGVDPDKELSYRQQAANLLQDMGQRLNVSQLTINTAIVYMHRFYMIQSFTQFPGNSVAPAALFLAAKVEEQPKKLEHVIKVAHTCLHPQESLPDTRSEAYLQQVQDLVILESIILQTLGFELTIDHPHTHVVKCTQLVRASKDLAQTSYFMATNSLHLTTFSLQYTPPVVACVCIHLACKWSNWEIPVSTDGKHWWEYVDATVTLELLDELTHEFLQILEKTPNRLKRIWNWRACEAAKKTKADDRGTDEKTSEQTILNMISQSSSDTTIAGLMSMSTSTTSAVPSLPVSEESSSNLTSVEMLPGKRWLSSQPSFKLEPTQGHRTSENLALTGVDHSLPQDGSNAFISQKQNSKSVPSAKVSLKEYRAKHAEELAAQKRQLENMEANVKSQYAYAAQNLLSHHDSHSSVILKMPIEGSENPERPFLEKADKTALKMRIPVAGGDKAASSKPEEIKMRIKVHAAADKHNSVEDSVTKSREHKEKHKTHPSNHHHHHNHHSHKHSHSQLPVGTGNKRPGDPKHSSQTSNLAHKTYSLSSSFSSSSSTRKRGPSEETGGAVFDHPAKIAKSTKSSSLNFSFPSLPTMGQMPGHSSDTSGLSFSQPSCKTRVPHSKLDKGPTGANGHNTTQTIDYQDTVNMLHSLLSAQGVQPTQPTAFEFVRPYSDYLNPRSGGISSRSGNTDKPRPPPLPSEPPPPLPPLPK

The target in the first test is Cdk9/cyclinT1 (Homo sapiens (Human), UniProt P50750). In words: Cdk9/CyclinT1 IMAP Protocol (fluorescence polarization kinase assay). It is filed as biochemical. As to conditions: Table 2; generated using one of the two Cdk9/cyclinT1 assays (IMAP or Alpha Screen), not specified which; unit inferred. In a few lines:
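Reaction used 4 nM Cdk9/cyclinT1, 100 nM 5TAMRA-cdk7tide peptide and 6 uM ATP in 100 mM Tris pH 7.2 with MgCl2, 0.01% Tween-20, 1 mM DTT and 2.5% DMSO, running 4.5 h. Phosphopeptide was captured by IMAP binding reagent for >1 h, then read by fluorescence polarization (ex 531/em 595 nm).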
In general terms: Polarisation of emitted light reports the rotation of a fluorescent probe.
On to `COCCN[C@H]1CC[C@H](Nc2cc(-c3cncc(NCC4CCOCC4)n3)c(Cl)cn2)CC1` [Compound 243, trans-N1-(5-chloro-4-(6-((tetrahydro-2H-pyran-4-yl)methyl)aminopyrazin-2-yl)pyridin-2-yl)-N4-(2-methoxyethyl)cyclohexane-1,4-diamine], for which the half-inhibitory concentration (IC50) came to 7.95 nM.
For the molecule `CN(Cc1cccc(F)c1)c1cccc(-c2cc(N[C@H]3CC[C@H](N)CC3)ncc2Cl)n1` [Compound 77], half-maximal inhibition (IC50) required 7.95 nM.
With `CN1CCN([C@H]2CC[C@H](Nc3cc(-c4cccc(NCc5cccc(F)c5)n4)c(Cl)cn3)CC2)CC1` [Compound 158], inhibition was half-maximal at 11 nM (IC50).
Still for that read-out and setting: the value for `NC[C@H]1CC[C@H](Nc2cc(-c3cccc(NCc4cccc(F)c4)n3)c(Cl)cn2)CC1` [Compound 4, N2′-(trans-4-(aminomethyl)cyclohexyl)-5′-chloro-N6-(3-fluorobenzyl)-2,4′-bipyridine-2′,6-diamine] was 9.05 nM.
Still for that read-out and setting: the value for `CCOC(=O)c1coc(N[C@H]2CC[C@H](Nc3cc(-c4cccc(NCc5cccc(F)c5)n4)c(Cl)cn3)CC2)n1` [Compound 155, Ethyl 2-(trans-4-(5′-chloro-6-(3-fluorobenzylamino)-2,4′-bipyridin-2′-yl-amino)cyclohexylamino)oxazole-4-carboxylate] was 23 nM; that for `CC1(C)CC(CNc2ccc(Cl)c(-c3cc(N[C@H]4CC[C@H](NC[C@H](O)C(F)(F)F)CC4)ncc3Cl)n2)CCO1` (stereo partly drawn) [Compound 298, (2S)-3-(trans-4-(3,5′-dichloro-6-((2,2-dimethyltetrahydro-2H-pyran-4-yl)methyl)amino-2,4′-bipyridin-2′-yl-amino)cyclohexylamino)-1,1,1-trifluoropropan-2-ol] was 1 nM.
For `Clc1cnc(N[C@H]2CC[C@H](NC3CCOC3)CC2)cc1-c1nc(NCC2CCOCC2)ccc1Cl` (mixture of isomers) [Compound 280, 3,5′-dichloro-N6-((tetrahydro-2H-pyran-4-yl)methyl)-N2′-(trans-4-(tetrahydrofuran-3-yl-amino)cyclohexyl)-2,4′-bipyridine-2′,6-diamine], the IC50 was 16.1 nM.
On the same count and under the same terms, the value for `N[C@H]1CC[C@H](Nc2cc(-c3cccc(NCc4ccc(Cl)cc4)n3)c(Cl)cn2)CC1` [Compound 55] was 7.95 nM; that for `Fc1ccc(CNc2cccc(-c3cc(N[C@@H]4CCCNC4)ncc3Cl)n2)cc1F` [Compound 94] was 507 nM.
Still for that read-out and setting: the value for `N[C@H]1CC[C@H](Nc2cc(-c3cncc(NCc4cccc(F)c4)n3)c(Cl)cn2)CC1` [Compound 101] was 7.95 nM.
Still for that read-out and setting: the value for `N[C@H]1CC[C@H](Nc2cc(-c3cccc(NCC4(F)CCOCC4)n3)c(Cl)cn2)CC1` [Compound 313, N2′-(trans-4-aminocyclohexyl)-5′-chloro-N6-((4-fluorotetrahydro-2H-pyran-4-yl)methyl)-2,4′-bipyridine-2′,6-diamine] was 1 nM.
The molecule `O=C([C@H]1CC[C@@H](Nc2cc(-c3cccc(NCc4cccc(F)c4)n3)c(Cl)cn2)C1)N1CCCC1` [Compound 213] returned a concentration for half-maximal inhibition (IC50) of 14.2 nM.
As for `Nc1ncc(-c2cc(N[C@H]3CC[C@H](N)CC3)ncc2Cl)nc1NCC1CCOCC1` [Compound 226, 6-(2-(trans-4-aminocyclohexylamino)-5-chloropyridin-4-yl)-N2-((tetrahydro-2H-pyran-4-yl)methyl)pyrazine-2,3-diamine], half-maximal inhibition (IC50) required 7.95 nM. Compared with the last molecule, the IC50 is about 1.8-fold lower.
As for `CC1(C)CC(CNc2ccc(Cl)c(-c3cc(N[C@H]4CC[C@H](NC[C@@H](O)C(F)(F)F)CC4)ncc3Cl)n2)CCO1` (stereo partly shown) [Compound 299], the IC50 turned out to be 1 nM.
For `COC[C@@H](C)N[C@H]1CC[C@H](Nc2cc(-c3cccc(NCC4COC(C)(C)CO4)n3)c(Cl)cn2)CC1` (stereo partly drawn) [Compound 307, 5′-chloro-N6-((5,5-dimethyl-1,4-dioxan-2-yl)methyl)-N2′-(trans-4-((R)-1-methoxypropan-2-yl-amino)cyclohexyl)-2,4′-bipyridine-2′,6-diamine], the midpoint of inhibition, the IC50, lay at 8 nM.
Same read-out and setting: the value for `CN(CC1CCOCC1)c1cncc(-c2cc(N[C@H]3CC[C@H](CO)CC3)ncc2Cl)n1` [Compound 251] was 43.2 nM.
On the same count and under the same terms, the value for `O[C@H]1CC[C@H](Nc2cc(-c3cccc(NC4CCOCC4)n3)c(Cl)cn2)CC1` [Compound 129] was 390 nM; that for `N[C@H]1CCCC[C@H]1Nc1cc(-c2cccc(NCc3cccc(F)c3)n2)c(Cl)cn1` [Compound 153] was 1550 nM.
On the same count and under the same terms, the value for `N[C@H]1CC[C@H](Nc2cc(-c3nc(NCC4CCOCC4)ccc3Cl)c(F)cn2)CC1` [Compound 260, N2′-(trans-4-aminocyclohexyl)-3-chloro-5′-fluoro-N6-((tetrahydro-2H-pyran-4-yl)methyl)-2,4′-bipyridine-2′,6-diamine] was 7.94 nM; that for `N[C@H]1CC[C@H](Nc2cc(-c3cncc(NCC4CCCOC4)n3)c(Cl)cn2)CC1` (stereo partly shown) [Compound 228] was 7.95 nM.
In turn, `Fc1cc(F)cc(CNc2cccc(-c3cc(N[C@H]4CCCNC4)ncc3Cl)n2)c1` [Compound 98] gave a 50% inhibitory concentration (IC50) of 416 nM.

The test system of a further test is neointima formation.
Assay: not given
Conditions: rats; cited from earlier work.
For `COc1ccc(CNc2nc(N(CCO)CCO)nc3c2ncn3C(C)C)cc1` [CVT-313], the “inhibition of neointima formation” value is listed as “greater than 80%”.
